“And” between values parts separate entries of the source, which are not always exact repeats. Identical values can stand only once.
What was measured:
Assay type in all cases: in vivo
[1] = tested on: Swiss mice CD1; assay: forced swim test, Alverine and fluoxetine administered intraperitoneally to mice (Example 3, second test); conditions: for immobility time, individual animals / immobility time, Mean: 30 minutes prior to the test; for immobility time, Mean: n = 10
Method: These are Swiss mice CD1 (CD-1® (ICR) IGS (Charles River France) weighing between 25 and 35 g. […] They are placed 15 to 20 per cage, over an acclimatising period of at least 5 days prior to the tests. They are identified by marking on the fur. […] The mice were divided into two test comprising six groups of 10 mice each. For the second test: The first group is the control group: it is treated only by excipient. […] The doses are expressed in terms of free active substances. The test substances are prepared extemporaneously in a saline solution. The treatments are co-administered 30 minutes prior to the test in a coded and random order intraperitoneally with a volume of 10 ml/kg (5 ml/kg for each administration). […] The total duration of immobility is measured over the last four minutes of the test, six minutes in total. A mouse is deemed immobile when it ceases struggling and floats in the water without movements superfluous to those allowing it to keep its head above water. A drop in immobility time is the reflection of an antidepressant effect. The forced swim test is a pre-clinical behavioural model, which has good predictive validity and is widely employed for determining the efficacy of antidepressant medications (Borsini and Meli, 1988). The results are expressed in total duration of immobility in seconds and as a percentage of variation of the total duration of immobility calculated from the average value of the control group. The statistical significance between two treated groups is determined by using a Student test (P<0.05) The data are analysed using <<SigmaStat>> software.

[2] = tested on: Swiss mice CD1; assay: forced swim test, Alverine administered intraperitoneally to mice (Example 1); conditions: Imipramine 10 mg/kg intraperitoneally
Method: To establish the advantages according to the present invention a study was carried out to 50 mice. They were divided into 5 groups of 10 mice each. These are Swiss mice CD1 (CD-1® (ICR) IGS (Charles River France) weighing between 25 and 35 g.
They were placed in a room at a temperature of between 19.5 and 24.5° C. and a relative humidity of 45 to 65% with a light/dark cycle of 12 h, ad libitum access to filtered water and pellets of laboratory-standard food.
They are placed 15 to 20 per cage, over an acclimatising period of at least 5 days prior to the tests. They are identified by marking on the fur.
The substance to be tested is Alverine citrate (Sigma, in the form of dry powder, with a salt/base ratio of 1.68) comparatively to imipramine chlorhydrate (Sigma, in the form of dry powder, with a salt/base ratio of 1.13).
The first group is the control group: it is treated only by excipient.
The second group is treated with Alverine at a dose of 3 mg/kg
The third group is treated with Alverine at a dose of 10 mg/kg
The fourth group is treated with Alverine at a dose of 30 mg/kg
The fifth group is treated with imipramine (tricyclic antidepressant) at a dose of 10 mg/kg
The doses are expressed in terms of free active substances. The substances are prepared extemporaneously in the excipient. The treatments are administered 30 minutes prior to the test in a coded and random order intraperitoneally with a volume of 10 ml/kg.
Thirty minutes following administration the five groups of mice are subjected to the forced swim test, in a vertical Plexiglas cylinder (height 24 cm, diameter 9 cm) containing water (height 6 cm, temperature 18-22° C.). The total duration of immobility is measured over the last four minutes of the test, six minutes in total. A mouse is deemed immobile when it ceases struggling and floats in the water without movements superfluous to those allowing it to keep its head above water. A drop in immobility time is the reflection of an antidepressant effect.
The forced swim test is a pre-clinical behavioural model, which has good predictive validity and is widely employed for determining the efficacy of antidepressant medications (Borsini and Meli, 1988).
The results are expressed in total duration of immobility in seconds and as a percentage of variation of the total duration of immobility calculated from the average value of the control group.
The statistical significance between the treated groups and the control group is determined by a Dunnett test using the residual variation according to analysis of the variance (P<0.05). The data are analysed using <<SigmaStat>> software.

[3] = tested on: Swiss mice CD1; assay: forced swim test, Alverine administered orally to mice (Example 2)
[4] = tested on: Swiss mice CD1; assay: forced swim test, Alverine and imipramine administered intraperitoneally to mice (Example 3, first test); parameters: key to Dunnett test vs control group: * indicates a significant difference for p < 0.05 (Dunnett test); ns indicates an insignificant result; conditions: for immobility time, individual animals / immobility time, Mean: 30 minutes prior to the test; for immobility time, Mean: n = 10
Method: These are Swiss mice CD1 (CD-1® (ICR) IGS (Charles River France) weighing between 25 and 35 g. […] They are placed 15 to 20 per cage, over an acclimatising period of at least 5 days prior to the tests. They are identified by marking on the fur. […] The mice were divided into two test comprising six groups of 10 mice each. For the first test: The first group is the control group: it is treated only by excipient. The second group is treated with imipramine at a dose of 3 mg/kg The third group is treated with Alverine at a dose of 3 mg/kg The fourth group is treated with Alverine at a dose of 3 mg/kg and imipramine at a dose of 3 mg/kg The fifth group is treated with imipramine at a dose of 10 mg/kg […] The doses are expressed in terms of free active substances. The test substances are prepared extemporaneously in a saline solution. The treatments are co-administered 30 minutes prior to the test in a coded and random order intraperitoneally with a volume of 10 ml/kg (5 ml/kg for each administration). Thirty minutes following administration the six groups of mice are subjected to the forced swim test, in a vertical Plexiglas cylinder (height 24 cm, diameter 9 cm) containing water (height 6 cm, temperature 18-22° C.). The total duration of immobility is measured over the last four minutes of the test, six minutes in total. A mouse is deemed immobile when it ceases struggling and floats in the water without movements superfluous to those allowing it to keep its head above water. A drop in immobility time is the reflection of an antidepressant effect. The forced swim test is a pre-clinical behavioural model, which has good predictive validity and is widely employed for determining the efficacy of antidepressant medications (Borsini and Meli, 1988). The results are expressed in total duration of immobility in seconds and as a percentage of variation of the total duration of immobility calculated from the average value of the control group. The statistical significance between two treated groups is determined by using a Student test (P<0.05) The data are analysed using <<SigmaStat>> software.

[5] = Fluoxetine 3 mg/kg intraperitoneally
[6] = Fluoxetine 10 mg/kg intraperitoneally
[7] = tested alone at 3 mg/kg intraperitoneally
[8] = Imipramine 3 mg/kg intraperitoneally
[9] = Imipramine 10 mg/kg intraperitoneally

With `CNCCC(Oc1ccc(C(F)(F)F)cc1)c1ccccc1` (stereo not drawn) [Fluoxetine, fluoxetine] the “% of variation of immobility time vs control group” value (shortened to “% of variation of immobility time”) [1, 5] was −30%, the “Dunnett test vs control group” value [1, 5] was “* (* indicates a significant difference for p < 0.05 (Dunnett test))” and the “immobility time, individual animals” value [1, 5] was 149 s and 18 s and 101 s and 99 s and 10 s and 100 s and 103 s. For the same compound, the “immobility time, Mean” value [1, 5] was 105.6 s, the “% of variation of immobility time” value [1, 6] was −45% and the “Dunnett test vs control group” value [1, 6] was “* (* indicates a significant difference for p < 0.05 (Dunnett test))”. The “immobility time, individual animals” value [1, 6] was 76 sec (2×) and 83 sec and 105 sec and 90 sec and 28 sec and 88 sec and 34 sec, the “immobility time, Mean” value [1, 6] was 82.7 s and the “decrease in the duration of immobilisation as compared to the control group (in words)” value [1, 7] was “statistically significant decrease”.
With `CN(C)CCCN1c2ccccc2CCc2ccccc21` [Imipramine, imipramine] the “% of variation of immobility time” value [2] was −62%, the “Dunnett test vs control group” value [2] was “* (* indicates a significant difference for p < 0.05 (Dunnett test))” and the “immobility time, individual animals” value ([2]; 30 minutes prior to the test) was 67 s and 70 s and 1 s and 89 s and 3 s and 9 s and 38 s and 99 s and 53 s and 65 s. For the same compound, the “immobility time, Mean” value ([2]; 30 minutes prior to the test, N = 10) was 49.4 s, the “% of variation of immobility time” value ([3]; Imipramine 30 mg/kg orally) was −58% and the “Dunnett test vs control group” value ([3]; Imipramine 30 mg/kg orally) was “* (* indicates a significant difference for p < 0.05 (Dunnett test))”. For the same compound, the “immobility time compared with mice treated with Alverine” value ([3]; Imipramine 30 mg/kg orally vs Alverine 100 mg/kg orally) was “comparable to the mice of the fourth group treated at 100 mg/kg of Alverine”, the “immobility time, individual animals” value ([3]; Imipramine 30 mg/kg orally, 60 minutes prior to the test) was 52 s and 64 s and 55 s and 5 s and 75 s and 67 s and 70 s and 89 s and 45 s and 96 s and the “immobility time, Mean” value ([3]; Imipramine 30 mg/kg orally, 60 minutes prior to the test, N = 10) was 61.9 s. The “% of variation of immobility time” value [4, 8] was −24%, the “Dunnett test vs control group” value [4, 8] was “ns” and the “immobility time, individual animals” value [4, 8] was 121 sec (2×) and 70 sec and 74 sec and 122 sec and 93 sec and 94 sec and 141 sec and 133 sec and 123 sec. The “immobility time, Mean” value [4, 8] was 109.2 s, the “% of variation of immobility time” value [4, 9] was −67% and the “Dunnett test vs control group” value [4, 9] was “* (* indicates a significant difference for p < 0.05 (Dunnett test))”. For the same compound, the “immobility time, individual animals” value [4, 9] was 0 s and 62 s and 38 s and 54 s and 45 s and 92 s and 26 s and 77 s and 80 s and 4 s, the “immobility time, Mean” value [4, 9] was 47.8 s and the “decrease in the duration of immobilisation as compared to the control group (in words)” value [4, 7] was “statistically insignificant decrease”.

— US20050065218A1, “Utilization of alverine, alone or in combination with tricyclic antidepressant or a specific serotonin reuptake inhibitor for the treatment of depression” (priority 2003, published 2005)
